According to US20230286995A1, “METABOLICALLY STABLE PYRIMIDINYL DIHYDROQUINOXALINONES AS TUBULIN POLYMERIZATION INHIBITORS” (UNIVERSITY OF TENNESSEE RESEARCH FOUNDATION, priority 2022, published 2023):
“Also recorded” adds a separate entry of the source. Read-outs that look alike come from different tables or passages of the source.

Experiments:
Mia PaCa-2 = test: Cytotoxicity assay (MTS, 72 h); type: cell-based; conditions: Homo sapiens, Table 6, read-out: IC50 (nM) Pancreatic cancer Mia PaCa-2
DU-145/TxR = test: Cytotoxicity assay (MTS, 72 h); type: cell-based; conditions: Homo sapiens, DU-145, read-out: IC50 ± SEM (nM) DU-145/TxR; Table 2
[1] = system: A375/TxR, M14/LCC6MDR1, MDA-MB-231/TxR, PC3/TxR, and DU145/TxR; test: Cell proliferation inhibition assay (MTS), paclitaxel-resistant panel; type: cell-based, human
Protocol: Cell proliferation inhibition assay: The cell proliferation inhibitory effects of tested compounds were first determined through MTS assay as previously described. In short, 3000 to 7500 cells were added to a 96-well cell culture plate followed by the treatment of the test compounds (0.1 nM to 3 μM) in quadruplicate after seeding and overnight incubation. After 72 hours of treatment, MTS (Promega) was added to the wells and the absorbance was measured at […] after incubating for 1.5 to 2 h. […] Briefly, A375/TxR cells (1000 cells/well) were treated with growth medium containing 0.5 nM, 1 nM, or 2 nM of 5v and incubated for over 7 days (the incubation medium was changed every 3 days). After fixing and staining with 0.5% crystal violet, the cell colonies were quantified by the Hybrid Counting module of the Keyence BZ-X700 microscope. The assay was performed in triplicate.

PC3 = test: Cytotoxicity assay (MTS, 72 h); type: cell-based; conditions: Homo sapiens, PC-3; Table 6; read-out: IC50 (nM) Prostate cancer PC3
Source text: Cytotoxicity Assay. […] Each experiment consisted of four replicates.

DU-145 = test: Cytotoxicity assay (MTS, 72 h); type: cell-based; conditions: Homo sapiens, DU-145, read-out: IC50 ± SEM (nM) DU-145; Table 2
PC3/TxR = test: Cytotoxicity assay (MTS, 72 h); type: cell-based; conditions: Homo sapiens, Table 6, paclitaxel-resistant, read-out: IC50 (nM) Prostate cancer PC3/TxR
A549/TxR = test: cells; conditions: Homo sapiens, read-out: IC50 ± SEM (nM) A549/TxR
[2] = system: MDA-MB-231 BrM2 brain metastases; test: MDA-MB-231-BrM2 brain metastasis model, survival study (Experiment 2); type: in vivo, NSG mice
A-253 and Detroit 562 = test: Cytotoxicity in head and neck cancer cell lines; type: cell-based; conditions: Homo sapiens; FIG. 39A; read-out: IC50 values, range over A-253 and Detroit 562
Protocol: A panel of dihydroquinoxalinones were tested in two head and neck cancer cell lines, A-253 and Detroit 562. A-253 cells are a human salivary epidermoid carcinoma cell line, whereas Detroit 562 is a head and neck squamous cell carcinoma (HNSCC). Oral cancer is the most common type of head and neck cancer and more than 90% of oral cancers are either oral or oropharyngeal squamous cell carcinoma (SCC). A major clinical dilemma is chemotherapy efficiency targeted for head and neck squamous cell carcinoma (HNSCC). The inability to successfully complete cancer treatment utilizing a standard surgical approach due to an advanced stage of HNSCC and/or resistance of SCC cells to conventional chemotherapy and/or radiotherapy leads to a continuous search for new compounds with cytostatic activity and minor side effects.
FIGS. 39B and 39C illustrate the graphical representation of the data. […] For example, at treatment levels as low of 0.5 nM, 12k was able to prevent head and neck cancer cell proliferation almost completely, whereas it required 5 nM of 17ya to achieve similar antiproliferation.

PANC-1-Luc xenografts = test: PANC-1-Luc subcutaneous xenograft model; type: in vivo, NSG mice
Protocol: (§1) All animal procedures were performed in accordance with the protocols approved by the Institutional Animal Care and Use Committee (IACUC) at UTHSC. Two pancreatic cancer cell lines, Mia PaCa-2-Luc and PANC-1-Luc, were used in this study. 50 μL of Mia PaCa-2-Luc (5×10^6 cells in HBSS) or PANC-1-Luc (3×10^6 cells in HBSS) cell suspension was mixed with same volume of Matrigel (1:1 mixture) right before use. Cell mixture was subcutaneously injected to the right flank of each NSG mice (male, 6-8 weeks). […] The control group received no treatment. Treatment started when the average tumor size reached 70-100 mm^3. […] Tumor volume and body weight were measured twice per week. Tumor volume was calculated by the equation: volume (mm^3)=0.5×(length×width^2). All animals were euthanized at the end of the study. Tumors were excised, recorded for ex-vivo weight and size, and imaged.

[3] = system: MDA-MB-231 BrM2 brain metastases
[4] = Microsomal stability assay; conditions: Table 3; liver microsomes; mean (% CV)
[5] = rats
[6] = system: A2780/TxR ovarian cancer xenografts; test: Orthotopic A2780/TxR ovarian cancer xenograft model; conditions: 5m 1 mg/kg IV; Compound 17ya 20 mg/kg PO; 3 weeks
[7] = system: Mia PaCa-2-Luc xenografts; type: in vivo, NSG mice; conditions: 2 mg/kg i.v., 1 dose/week, 42 days
Protocol: as §1

## CCNc1nc2c(c(N3CC(=O)Nc4cc(OC)ccc43)n1)CCC2 [Compound 5v, 4-(2-(ethylamino)-6,7-dihydro-5H-cyclopenta[d]pyrimidin-4-yl)-7-methoxy-3,4-dihydroquinoxalin-2(1H)-one]
Mia PaCa-2
  IC50: 3.4 ± 0.4 nM
DU-145/TxR
  IC50: 1.9 ± 0.3 nM
[1]
  IC50 level in paclitaxel-resistant cancer cells: sub-nanomolar level
PC3
  IC50: 1.7 ± 0.1 nM
DU-145
  IC50: 1.8 ± 0.3 nM
PC3/TxR
  IC50: 0.8 ± 0.1 nM

## COc1ccc2c(c1)NC(=O)CN2c1nc(C)nc2c1CCC2 [Compound 5m, 7-methoxy-4-(2-methyl-6,7-dihydro-5H-cyclopenta[d]pyrimidin-4-yl)-3,4-dihydroquinoxalin-2(1H)-one]
A549/TxR
  IC50: 2.8 ± 1.1 nM
[2]; 1.0 mg/kg IV twice per week, vehicle 25 days
  median survival: 36.5 days
[2]; Experiment 2
  body weight: gained weight through day 21 of dosing
[2]; all vehicle mice deceased by 30 days
  survival of all treated mice: > 30 days
[2]; day 28, n=1
  increased metastasis (photon flux) in vehicle vs 5m treated representative mouse: 6.7 fold
[2]; mouse, in vivo
  metastatic progression in the brain, in vivo photon flux: delayed metastatic progression in the brain
[2]; vehicle mouse died on day 28
  day until which representative treated mouse lived: 35 days
A-253 and Detroit 562
  IC50: 0.52 to 3.2 nM
PANC-1-Luc xenografts; 1 mg/kg or 2 mg/kg i.v., 1 dose/week for 7 weeks
  xenograft tumor growth: dose-dependent and significant inhibition of xenograft tumor growth; also recorded: dose-dependently inhibited xenograft tumor growth
PANC-1-Luc xenografts; 49 days, two doses
  body weight vs control: no differences seen in body weight
[3]; 1 minute capture, vehicle 6.01×10^7
  photon flux in ex vivo brain of representative animal: 1.51×10^7 p/s
[3]; Experiment 1
  body weight: maintain body weight through day 24
[3]; bone, lungs, spleen
  extracranial metastasis, ex vivo photon flux: statistically reduced metastasis to bone, lungs, and spleen
[3]; mouse, in vivo
  adverse effects at initial dose: mice lost weight and had diarrhea
[4]
  Metabolic stability in mouse t1/2: 0.24 h
[5]; Intravenous (2 mg/kg)
  Clearance: 36.9 mL/min/kg
  Cmax: 806 ng/mL
  Volume of distribution: 23.7 L/kg
[5]; Intravenous (2 mg/kg), terminal half-life
  t1/2: 14.7 h
[5]; Intravenous (2 mg/kg), unchanged form
  Cumulative urinary excretion (%): 0.00134%
[5]; Oral (5 mg/kg)
  Bioavailability (%): 3.2%
  Cmax: 34.7 ng/mL
[6]
  mice having visible tumor: 1 of 5
[7]
  reduction of tumor growth vs control: 70-80%
